This is an account of results in PMC9814900 (Communications Chemistry, 2022).

Numbered stars: 1 amine (or outer) side, 2 acyl side, 3 side chain; on linkers, the order of the positions; unused ones are H or OH. Bridge positions count the residues as written; N and C are the ends. Peptide text beside a SMILES is read from it. * marks the point of attachment. Biotin = O=C1N[C@H]2[C@H](CS[C@H]2CCCCC(=O)*)N1; C6F4(1,4-diyl) = Fc1c(F)c([*:2])c(F)c(F)c1[*:1]; PEG4 = NCCOCCOCCOCCOCCC(=O)O

A short description of one data set: Serum stability assay. In kind it is in vitro ADME. Conditions: 10 µM peptide, 25% human serum in 1x PBS (v/v); 0 min-24 h; TCA precipitation; LC-MS EIC peak area; first-order fit; three experiments; read-out: Half-life (t1/2) in serum. The method, then: To assess the stability of stapled peptides, we performed a serum stability assay (Supplementary Fig. 6)[31],[36],[37]. Three stapled peptides were selected for assessment. […]
10 µM peptide were incubated with 25% human serum in buffer 1x PBS (v/v). At each time point (0 min, 5 min, 10 min, 30 min, 1 h, 2 h, 4 h, 8 h, 12h and 24 h), the mixture was sampled, treated with 10% trichloroacetic acid, and centrifuged at 12,000 g to remove serum proteins. The supernatant was acidified with 0.2% formic acid in water (v/v) and subjected to LC-MS analysis. The percentage of peptides (Y-axis) was calculated as the ratio of peak area in extracted ion chromatogram (EIC). Three experiments were carried out. The serum digestion curve was plotted using Prism8 software. The half-life of each peptide was calculated by fitted the digestion curve with the first order kinetic equation: ሾXሿ௧ ൌ ሾXሿ଴ ൈeି௞௧ , ሾXሿ is the remaining peptide percentage, t is the time in min. Half-life was calculated as tଵ/ଶ ൌሺln 2ሻ/k .

For data set [1], the target named is T1, SUMO-25-109MDM2 (Homo sapiens, UniProt Q00987).
T1 construct: the ^25-109MDM2 gene was purchased from Addgene; made in house; host or cells: E. coli Rosetta (DE3) pLysS
As to the kind of experiment: In-solution competition assay by biolayer interferometry (BLI). The conditions noted are these: supplementary binding validation; averaged over three measurements; ~30-100 nM SUMO-25-109MDM2 as given per peptide; read-out: Averaged KD, competition BLI assay. The data set is classed as binding.

Data set [2] has as its target T1, SUMO-25-109MDM2. As to the kind of experiment: Direct BLI binding assay of immobilised biotinylated peptides. Conditions: biotin-PEG4-peptide on streptavidin sensor, SUMO-25-109MDM2 4-500 nM, global 1:1 fit. The method, then: 6. Supplementary Methods 4: Binding validation by bio-layer interferometry 6.1 Methods for BLI assay
In vitro binding assay was performed using ForteBio Octet RED96 BLI system (Octet RED96). In a typical experiment, the streptavidin (SA) tips were dipped in 200 µL biotinylated- peptide solution (2.0 μM in PBS with 0.02% Tween 20 and 1 mg/mL BSA) for the loading step. The loaded tips were then dipped in the sample wells for association curves. Buffer-only condition were used as reference for background subtraction. After association, the tips were dipped in blocking buffer (1x PBS, 0.02% Tween 20, 1 mg/mL BSA) to obtain dissociation curve. The association and dissociation curves were fitted by the global fitting algorithm, under binding model 1:1 to obtain the binding response value (R) in nm.
Streptavidin sensors were soaked in blocking buffer for 5 min. After immobilizing the PEG4-biotinylated peptide (100 nM of Biotin-PEG4-peptide) onto streptavidin sensors, serial dilutions of SUMO-25-109MDM2 in blocking buffer were analyzed for binding (500 nM, 250 nM, 125 nM, 63nM, 32 nM, 16 nM, 8 nM and 4 nM. The response was recorded at equilibrium after 2 min.

For another data set, the target named is 14-3-3σ. The conditions noted are these: previously characterized binder; cited from earlier work. The source says: The epitope used for 12ca5 has the sequence […]; the previously characterized protein 14-3-3σ binder 14-3-3.6 was used for 14-3-3σ and its sequence can be found in Fig. 6b. A beta-alanine spacer was used between the library construct and the C-terminal lysine. […]

A further data set has as its target antibody 12ca5. Conditions: stated for the epitope without method; ref not given; cited from earlier work. From the text:
The epitope used for 12ca5 has the sequence […]; the previously characterized protein 14-3-3σ binder 14-3-3.6 was used for 14-3-3σ and its sequence can be found in Fig. 6b. A beta-alanine spacer was used between the library construct and the C-terminal lysine.

Turning to `CC(C)C[C@H](NC(=O)[C@H](C)NC(=O)[C@H](C)NC(=O)[C@H](Cc1c[nH]c2ccccc12)NC(=O)[C@H](Cc1ccc(O)cc1)NC(=O)[C@H](C)NC(=O)[C@H](C)NC(=O)[C@H](Cc1ccccc1)NC(=O)[C@H](C)NC(=O)[C@H](C)N)C(=O)N[C@@H](C)C(=O)N[C@@H](C)C(=O)N[C@@H](CCCCN)C(N)=O` [Peptide 34] (H-AAFAAYWAALAAK-NH2), the half-life at 10 µM in the data set “Serum stability assay” was determined as 5.1 min.
One may read the Kd as the free concentration of one partner at which half of the binding sites on the other are occupied at equilibrium, for simple one-to-one binding. Consider `CC(C)C[C@H](NC(=O)[C@@H]1CSc2c(F)c(F)c(c(F)c2F)SC[C@H](NC(=O)[C@H](C)NC(=O)[C@H](Cc2ccccc2)NC(=O)[C@H](CO)NC(=O)[C@H](C)N)C(=O)N[C@@H](Cc2ccc(O)cc2)C(=O)N[C@@H](Cc2c[nH]c3ccccc23)C(=O)N[C@@H](C)C(=O)N1)C(=O)N[C@@H](CO)C(=O)N[C@@H](C)C(N)=O` [Peptide 38] (H-ASFACYWACLSA-NH2; linker 5-9 via C6F4(1,4-diyl)), for which, on SUMO-25-109MDM2 [1], the Kd came to 0.4 ± 0.3 nM. Further, the half-life at 10 µM in “Serum stability assay” was 27 min.
Take `CC(C)C[C@H](NC(=O)[C@H](CC(N)=O)NC(=O)[C@H](Cc1c[nH]c2ccccc12)NC(=O)[C@H](Cc1ccc(O)cc1)NC(=O)[C@H](CCC(=O)O)NC(=O)[C@H](C)NC(=O)[C@H](Cc1ccccc1)NC(=O)[C@H](CO)NC(=O)[C@@H](N)[C@@H](C)O)C(=O)N[C@@H](CC(C)C)C(=O)N[C@@H](CO)C(=O)N1CCC[C@H]1C(N)=O` [PMI, reference compound] (H-TSFAEYWNLLSP-NH2): the half-life at 10 µM in the data set “Serum stability assay” stood at 2.2 min.
By koff is commonly meant the rate constant with which the complex falls apart. Read a low koff as a long-lived complex. For orientation: kon means the second-order rate constant of association. A higher kon goes with faster complex formation. Consider `CC(C)C[C@H](NC(=O)[C@H](C)NC(=O)[C@H](C)NC(=O)[C@H](Cc1c[nH]c2ccccc12)NC(=O)[C@H](Cc1ccc(O)cc1)NC(=O)[C@H](C)NC(=O)[C@H](C)NC(=O)[C@H](Cc1ccccc1)NC(=O)[C@H](C)NC(=O)[C@H](C)NC(=O)CCOCCOCCOCCOCCNC(=O)CCCC[C@@H]1SC[C@@H]2NC(=O)N[C@@H]21)C(=O)N[C@@H](C)C(=O)N[C@@H](C)C(=O)N[C@@H](CCCCN)C(N)=O` [Peptide 34-biotin] ({Biotin-PEG4}-AAFAAYWAALAAK-NH2), for which, at SUMO-25-109MDM2 [2], the off-rate constant (koff) was determined as 0.0102 s⁻¹ and the kon stood at 824000 M⁻¹ s⁻¹.
On to “Cha-Cha-β-Ser-Orn-pSer-Nph-β-Ser-β-Ser-Nph [Peptide 14-3-3.6]”, for which the Kd on 14-3-3σ is 3 nM.
For `CC(C)C[C@H](NC(=O)[C@H](C)NC(=O)[C@@H]1CSc2c(F)c(F)c(c(F)c2F)SC[C@H](NC(=O)[C@H](Cc2ccccc2)NC(=O)[C@H](CO)NC(=O)[C@H](C)N)C(=O)N[C@@H](CCC(=O)O)C(=O)N[C@@H](Cc2ccc(O)cc2)C(=O)N[C@@H](Cc2c[nH]c3ccccc23)C(=O)N1)C(=O)N[C@@H](C)C(=O)N[C@@H](C)C(N)=O` [Peptide 36] (H-ASFCEYWCALAA-NH2; linker 4-8 via C6F4(1,4-diyl)), the Kd at SUMO-25-109MDM2 [1] is 4.4 ± 1.9 nM. The half-life at 10 µM in “Serum stability assay” was determined as 26 min.
At SUMO-25-109MDM2 [2], `CC(C)C[C@H](NC(=O)[C@H](C)NC(=O)[C@H](C)NC(=O)[C@H](Cc1c[nH]c2ccccc12)NC(=O)[C@H](Cc1ccc(O)cc1)NC(=O)[C@H](C)NC(=O)[C@H](C)NC(=O)[C@H](Cc1ccccc1)NC(=O)[C@H](C)NC(=O)[C@@H](NC(=O)CCOCCOCCOCCOCCNC(=O)CCCC[C@@H]1SC[C@@H]2NC(=O)N[C@@H]21)[C@@H](C)O)C(=O)N[C@@H](C)C(=O)N[C@@H](C)C(=O)N[C@@H](CCCCN)C(N)=O` [Peptide 32-biotin] ({Biotin-PEG4}-TAFAAYWAALAAK-NH2) gave a koff of 0.00981 s⁻¹ and a kon of 633000 M⁻¹ s⁻¹.
Consider `CC(C)C[C@H](NC(=O)[C@H](C)NC(=O)[C@H](C)NC(=O)[C@H](Cc1c[nH]c2ccccc12)NC(=O)[C@H](Cc1ccc(O)cc1)NC(=O)[C@H](C)NC(=O)[C@H](C)NC(=O)[C@H](Cc1ccccc1)NC(=O)[C@H](C)NC(=O)[C@@H](N)[C@@H](C)O)C(=O)N[C@@H](C)C(=O)N[C@@H](C)C(=O)N[C@@H](CCCCN)C(N)=O` [Peptide 32] (H-TAFAAYWAALAAK-NH2), for which the half-life at 10 µM in “Serum stability assay” turned out to be 3.9 min.
For YPYDVPDYA, at antibody 12ca5, the Kd was 4 nM.
As for `CC(C)C[C@@H]1NC(=O)[C@H](C)NC(=O)[C@@H](NC(=O)[C@H](Cc2c[nH]c3ccccc23)NC(=O)[C@H](Cc2ccc(O)cc2)NC(=O)[C@H](CCC(=O)O)NC(=O)[C@H](C)NC(=O)[C@H](Cc2ccccc2)NC(=O)[C@H](CO)NC(=O)[C@H](C)N)CSc2c(F)c(F)c(c(F)c2F)SC[C@@H](C(N)=O)NC(=O)[C@H](C)NC1=O` [Peptide 39] (H-ASFAEYWCALAC-NH2; linker 8-12 via C6F4(1,4-diyl)), the Kd at SUMO-25-109MDM2 [1] came to 3.3 ± 2.1 nM. For the same molecule, the half-life at 10 µM in “Serum stability assay” was 25 min.
On SUMO-25-109MDM2 [2], `CC(C)C[C@H](NC(=O)[C@H](C)NC(=O)[C@H](C)NC(=O)[C@H](Cc1c[nH]c2ccccc12)NC(=O)[C@H](Cc1ccc(O)cc1)NC(=O)[C@H](C)NC(=O)[C@H](C)NC(=O)[C@H](Cc1ccccc1)NC(=O)[C@H](CO)NC(=O)[C@H](C)NC(=O)CCOCCOCCOCCOCCNC(=O)CCCC[C@@H]1SC[C@@H]2NC(=O)N[C@@H]21)C(=O)N[C@@H](C)C(=O)N[C@@H](C)C(=O)N[C@@H](CCCCN)C(N)=O` [Peptide 33-biotin] ({Biotin-PEG4}-ASFAAYWAALAAK-NH2) displayed a koff of 0.0107 s⁻¹ and a kon of 170000 M⁻¹ s⁻¹.
